Assays:
Type in all cases: functional
Set-up in all cases: concentration or dose not given beside the values
[1] = test system: Plasmodium berghei; assay: MMV: P. berghei-infected blood was withdrawn from mice by cardiac pucture before being immediately added to ookinete culture medium containing test compounds. 26 hr later, GFP-positive ookinetes were identified and counted by automated microscopy. All compounds were tested in 4 independent experiments and data presented here is the mean.
[2] = test system: Plasmodium falciparum; assay: MMV: P. falciparum NF54 functionally mature Stage V gametocytes were incubated for 24 hr in the presence of the test compounds. Gamete formation was then triggered by addition of 2uM xantheurenic acid and temperature decrease to ~20C. Female gamete formation was recorded 24 hr later by automated microscopy detection of surface labelling of female gametes with a Cy3-conjugated antibody reactive to Pfs25. All compounds were tested in 4 independent experiments and data presented here is the mean.; details: NF54, 24 h
[3] = test system: Plasmodium falciparum; assay: MMV: P. falciparum NF54 functionally mature Stage V gametocytes were incubated for 24 hr in the presence of the test compounds. Gamete formation was then triggered by addition of 2uM xantheurenic acid and temperature decrease to ~20C. Male gamete exflagellation was recorded and analysed by automated microscopy after 20 min. All compounds were tested in 4 independent experiments and data presented here is the mean.

CCCc1c(C)nc2ccc(Br)cc2c1O
inhibition [1]: 47.59% | inhibition [2]: -18.5% | inhibition [3]: -14.5%

C=CC12CCN(CC1)C(C(O)c1ccnc3ccc(OC)cc13)C2.Cl (stereo unspecified)
inhibition [1]: -25.15% | inhibition [2]: -31.3% | inhibition [3]: -29.1%

CC1CN(C(=O)c2sc3ccccc3c2Cl)CC(C)O1 (stereo unspecified)
inhibition [1]: -8.352% | inhibition [2]: -12.3% | inhibition [3]: 35.6%

Oc1ccccc1CN1CCC2(CCCN(Cc3ccccc3F)C2)C1 (stereo unspecified)
inhibition [1]: -6.641% | inhibition [2]: -21.4% | inhibition [3]: 22.9%

CCOc1ccc(Nc2ccnc3cc(Cl)ccc23)cc1
inhibition [1]: -13.78% | inhibition [2]: -52.9% | inhibition [3]: -4.26%

c1ccc2c(NCCc3c[nH]c4ccccc34)c3ccccc3nc2c1
inhibition [1]: -6.399% | inhibition [2]: 2.57% | inhibition [3]: 5.59%

COc1ccc(-c2cc(=O)oc3c4c(ccc23)OCN(Cc2ccc(F)cc2)C4)cc1
inhibition [1]: -11.79% | inhibition [2]: -14.6% | inhibition [3]: -29.3%

O=C(Nc1ccc(CN2CCOCC2)cc1)c1ccc(-c2ccc(Br)cc2)o1
inhibition [1]: -6.99% | inhibition [2]: -17.9% | inhibition [3]: 14.4%

CC(=O)NCCc1nc2ccccc2n1Cc1ccc(C(C)C)cc1
inhibition [1]: -8.216% | inhibition [2]: -12.8% | inhibition [3]: -6.3%

O=c1nc(C=Cc2ccc(Br)cc2)oc2ccccc12
inhibition [1]: 19.61% | inhibition [2]: 4.96% | inhibition [3]: 35.1%

O=C(Nc1ccccc1O)c1ccc(Oc2cccc(C(=O)Nc3ccccc3O)c2)cc1
inhibition [1]: -7.561% | inhibition [2]: -9.72% | inhibition [3]: 15.9%

COc1ccc(-c2nc(N3CCN(C(=O)C4CCCCC4)CC3)c3c4c(sc3n2)CCCC4)cc1
inhibition [1]: -8.277% | inhibition [2]: -9.88% | inhibition [3]: 1.21%

Cc1cc(N2CCCC2)nc(Nc2ccc(NC(=O)CCc3ccccc3)cc2)n1
inhibition [1]: -8.954% | inhibition [2]: -8.07% | inhibition [3]: -19.1%

c1ccc(Cn2c(N=Nc3c(Nc4ccccc4)ccc4ccccc34)nc3ccccc32)cc1
inhibition [1]: 7.124% | inhibition [2]: 7.17% | inhibition [3]: -0.509%

Cc1ccc(F)cc1NC(=O)c1cc(Cl)ccc1Nc1ccccc1
inhibition [1]: 6.256% | inhibition [2]: -12.6% | inhibition [3]: 43.2%

Nc1nc(Nc2cccc(F)c2)nc2ccccc12
inhibition [1]: 16.83% | inhibition [2]: -41.8% | inhibition [3]: -16.2%

Cc1ccnc(NC(c2cccc(OCc3ccccc3)c2)c2ccc3cccnc3c2O)c1 (stereo unspecified)
inhibition [1]: -0.9408% | inhibition [2]: -12.7% | inhibition [3]: 11%

Cc1ccc(CSCc2ccc(C(=O)NC3CC3)o2)cc1
inhibition [1]: 11.64% | inhibition [2]: -29.1% | inhibition [3]: 34.4%

COc1ccccc1CNC(=O)C1c2ccccc2C(=O)N(CC(C)C)C1c1cccs1 (stereo unspecified)
inhibition [1]: -12.03% | inhibition [2]: -15.9% | inhibition [3]: 8.38%

COc1ccccc1C(=O)ON=C(N)Cc1cccc2ccccc12
inhibition [1]: -22.37% | inhibition [2]: 14.9% | inhibition [3]: 30.9%

Cl.N=c1n(CCN2CCCCC2)c2ccccc2n1CC(O)c1cccc(Br)c1 (stereo unspecified)
inhibition [1]: -14.54% | inhibition [2]: -26.6% | inhibition [3]: -19.3%

FC(F)(F)c1cccc(CNC2CCN(CCc3ccccc3)CC2)c1
inhibition [1]: 1.472% | inhibition [2]: -31.1% | inhibition [3]: -0.872%

COc1ccc(C(=O)NC(c2ccc(Cl)cc2Cl)c2cc(Cl)c3cccnc3c2O)cc1 (stereo unspecified)
inhibition [1]: 1.805% | inhibition [2]: -10.1% | inhibition [3]: -11.1%

CCOc1ccc(Nc2c3ccccc3nc3ccccc23)cc1.Cl
inhibition [1]: 63.73% | inhibition [2]: -9.14% | inhibition [3]: 21.7%

CC(=O)Nc1nnc(SCc2c(C)cc(C(C)(C)C)cc2C)s1
inhibition [1]: 4.957% | inhibition [2]: 5.39% | inhibition [3]: 17.4%

CCOC(=O)C1CCN(C(=O)CN2C(=O)c3ccccc3C2c2c[nH]c3ccccc23)CC1 (stereo unspecified)
inhibition [1]: -16.49% | inhibition [2]: -26% | inhibition [3]: 32.6%

O=C(Nc1ccc(Cl)cc1C(=O)Nc1ccncc1)c1ccc(Cl)cc1Cl
inhibition [1]: 36.2% | inhibition [2]: 9.34% | inhibition [3]: 7.46%

COc1cccc(C=Cc2nc(=O)c3ccccc3o2)c1OC
inhibition [1]: 98.18% | inhibition [2]: -15.1% | inhibition [3]: -2.89%

CCOC(=O)c1c(NC(=O)c2ccccc2)sc2c(O)c(CN(CC)CC)ccc12
inhibition [1]: -23.17% | inhibition [2]: -19.6% | inhibition [3]: 51%

O=C(NCc1ccco1)C1CCN(S(=O)(=O)c2ccc(Br)cc2)CC1
inhibition [1]: 31.69% | inhibition [2]: 5.71% | inhibition [3]: 29.2%

CCOC(=O)c1cnc2ccc(OC)cc2c1Nc1ccc(N2CCN(C)CC2)cc1
inhibition [1]: -18.25% | inhibition [2]: -40% | inhibition [3]: -13.9%

Cc1ccc2c(C)nc(Nc3nc(C)cc(-c4ccccc4)n3)nc2c1
inhibition [1]: -0.3138% | inhibition [2]: -39.7% | inhibition [3]: -11.5%
